Results taken from US20190282563A1, “Selective c-FLIP Inhibitors as Anticancer Agents” (Centre National de la Recherche Scientifique, priority 2016, published 2019).
“Also recorded” adds a separate entry of the source.

Assays:
[1] = test system: H1703-Mock cells; test: Cleavage of caspase-8, caspase-3 and PARP in H1703-mock cells; type: cell-based, Human
From the text: (§1) Reactivation of the Apoptotic Pathway by c-FLIP inhibitors combined with TRAIL: Cleavage of caspases is a marker of apoptosis pathway initiation. Thus, the present Inventors have studied the cleavage of caspase-8, of caspase-3 and of PARP (a caspase-3 substrate, which undergoes cleavage during apoptosis) in H1703-mock cells and in H1703-FLIP(L) cells, in the presence of TRAIL alone, in the presence of a c-FLIP inhibitor (molecules (1), (3), (4) and (9)), and of a combination of TRAIL and one of the c-FLIP inhibitors. The results obtained are presented on FIG. 4(A)-(B). […] However, no cleavage was observed when H1703-MOCK cells were treated with a c-FLIP inhibitor alone.

[2] = test system: H1703-FLIP(L) cells; test: Cleavage of caspase-8, caspase-3 and PARP in H1703-FLIP(L) cells; type: cell-based, Human; details: H1703 cells overexpressing FLIP
From the text: as §1

[3] = test system: H1703-FLIP(L) cells; test: Annexin V-PE flow cytometry apoptosis test, H1703-FLIP(L) cells (TRAIL alone, molecule alone or combination); type: cell-based, Human; details: 18 hours; for sensitization to TRAIL-induced apoptosis (percentage of apoptosis, annexin V): molecule at its most suitable concentration combined with TRAIL 100 ng/mL
Protocol: (§2) Cell Culture. H1703 (Human non-small lung cancer cell line) cells were grown in RPMI 1640 (LONZA) culture media supplemented with 10% fetal bovine serum and puromycine antibiotic (2 μg/ml) from Sigma-Aldrich. The cells were kept in a humidified atmosphere in an incubator at 37° C. and 5% CO2. H1703 cells were a kind gift from O. Micheau (INSERM, Dijon, France).
(§3) Flow Cytometry Analysis. The apoptotic cell death was confirmed by flow cytometry (cytoFLEX, Backman Coulter). After treatment of cells with TRAIL alone, c-FLIP inhibitor alone, or co-admninistration TRAIL/c-FLIP inhibitor, the cells were collected, washed and re-suspended in 1× Annexin binding buffer. Annexin-V-PE was added to cells, and left 20 minutes at room temperature in the dark. Flow cytometric analysis was carried out in the final step.
(§4) Sensitivity of the H1703 cells to TRAIL: The first goal was to verify that the H1703 cells are sensitive to TRAIL. To do so, the cells were treated with TRAIL at a concentration of 100 ng/mL for 18 hours and then the cells were washed and incubated with Annexin V-PE to evaluate the apoptosis level using flow cytometry. […] So, the Inventors applied a range of concentrations for each molecule to determine the appropriate dose that has no toxic effect on the cells when administered alone.
Combination Treatment of TRAIL with each one of the 9 Identified Molecules: Following the identification of the best concentration for each compound, HE1703 cells were treated with TRAIL (100 ng/mL) alone or with one of the 9 identified molecules alone or with a combination of TRAIL and one of the 9 identified molecules for 18 hours. The percentage of apoptosis was measured by flow cytometry using an annexin V test, as described above. The results obtained are presented on FIGS. 2(A, B and C).

[4] = molecular target: T1, cFLIP/FADD interaction (Homo sapiens, UniProt O15519); test: Pull down assay of FADD/c-FLIP interaction (MBP-trap column, Western blot); type: binding; details: c-FLIP(s) and FADD incubated 18 hours with molecule at different concentrations
T1 construct: made in house; host or cells: E. coli: Rosetta (pET24b, c-FLIP(s)) and DH5α (pMALC2, FADD)
Protocol: Transformation of Competent Bacteria. FLIP (s) and FADD genes were previously cloned and inserted in their respective plasmids pET24b and pMALC2, and provided as a kind gift from Pr. Richard Daniellou (ICOA, Orléans, France). Pet24b and Pmalc2 plasmids were mixed with their corresponding competent bacterial cells, Rosetta and DH5α cells respectively, and left on ice for 20 minutes. Heat-shocking steps were performed before adding LB medium and leaving cells to grow on 37° C. for 1 hour and then cells were spread on LB plates with appropriate antibiotics and incubated at 37° C. overnight.
Production of c-FLIP (s) and FADD proteins. Transformed competent cells were cultured in large amounts of LB growth at 37° C. and the expression of each protein was stimulated using 1M IPTG (Isopropyl β-D-1-thiogalactopyranoside) and cells were left to grow for 18 hours at 30° C. Cells were collected, centrifuged and resuspended in Tris/NaCl buffer (Tris 50 mM, NaCl 100 mM, pH 8.0) after which they were centrifuged at 6000 g, for 10 minutes at 4° C. Supernatant was removed and bacterial pellets were used for cell lysis and protein purification on Ni-NTA column and MBP-trap column for cFLIP(s) and FADD purification, respectively. The FLIP(s) is a His-tagged protein, and FADD is a MBP-tagged protein. The purified proteins were incubated with each molecule for 18 hours at +4° C. and then, the samples were passed again on MBP-trap columns.
Western Blot Analysis. The samples, purified and obtained after FADD/FLIP/compounds incubation, were run on 4-12% Bis-Tris polyacrylamide gels to evaluate the presence of FLIP and FADD bands.
Once purified, c-FLIP(s) and FADD were incubated for 18 hours with each one of the nine c-FLIP inhibitors at different concentrations. The samples were then passed on a MBP-trap column, which binds FADD (MBP-tagged protein). If cFLIP is still bound to FADD, then it is captured with FADD on the MBP column. Samples were then evaluated using a Western blot analysis by monitoring the disappearance of the c-FLIP band with increasing concentration of the c-FLIP inhibitor. Disappearance of the c-FLIP band in Western Blot corresponds to FADD-c-FLIP interaction inhibition.

[5] = test system: H1703-Mock cells; test: Annexin V-PE flow cytometry apoptosis test, H1703-Mock cells; type: cell-based, Human; details: TRAIL 100 ng/mL, 18 hours
Protocol: as §2, §3, §4

[6] = TRAIL combined with c-FLIP inhibitor
[7] = combination of TRAIL and c-FLIP inhibitor

| Molecule | cleavage of caspase-8, caspase-3 and PARP [1, 6] | cleavage of caspase-8, caspase-3 and PARP ([1]; c-FLIP inhibitor alone) | cleavage of caspase-8, caspase-3 and PARP ([2]; c-FLIP inhibitor alone) | cleavage of caspase-8, caspase-3 and PARP [2, 7] | sensitization to TRAIL-induced apoptosis (percentage of apoptosis, annexin V) [3] | inhibition of the interaction between FADD and c-FLIP (disappearance of the c-FLIP band) [4] | cleavage of caspase-8, caspase-3 and PARP ([1]; TRAIL alone) | cleavage of caspase-8, caspase-3 and PARP ([2]; TRAIL alone) | effect of TRAIL alone on apoptosis ([3]; TRAIL 100 ng/mL, H1703-FLIP(L) cells overexpressing c-FLIP) | level of apoptosis [5] |
| --- | --- | --- | --- | --- | --- | --- | --- | --- | --- | --- |
| Cc1cccc(Nc2sc(C(=O)c3cc4cc(Cl)ccc4o3)c(N)c2C#N)c1 [Molecule (9)] | cleavage of caspase-8, caspase-3 and PARP | no cleavage | no cleavage observed | induce cleavage of caspase-8, caspase-3 and PARP | most active | inhibit the interaction between FADD and c-FLIP | – | – | – | – |
| N#Cc1cc(-c2ccccc2)[nH]c1-c1nccc2ccccc12 [Molecule (3)] | cleavage of caspase-8, caspase-3 and PARP | no cleavage | no cleavage observed | induce cleavage of caspase-8, caspase-3 and PARP | most active | inhibit the interaction between FADD and c-FLIP | – | – | – | – |
| Cc1c2cnccc2c(C)c2c1c1ccccc1n2CCOC(=O)c1ccccc1 [Molecule (4)] | cleavage of caspase-8, caspase-3 and PARP | no cleavage | no cleavage observed | induce cleavage of caspase-8, caspase-3 and PARP | most active | inhibit the interaction between FADD and c-FLIP | – | – | – | – |
| CC1=C(C)Cc2c(OC(=O)c3ccccc3)ccc(OC(=O)c3ccccc3)c2C1 [Molecule (7)] | – | – | – | – | – | inhibit the interaction between FADD and c-FLIP | – | – | – | – |
| NS(=O)(=O)c1ccc(NC(=S)NC(=O)c2ccco2)cc1 [Molecule (6)] | – | – | – | – | – | no effect | – | – | – | – |
| Cc1cc(/N=N/c2c(O)nc3ccccc3c2O)ccc1/N=N/c1ccc(C(=O)N(C)C)cc1 [Molecule (1)] | cleavage of caspase-8, caspase-3 and PARP | no cleavage | no cleavage observed | induce cleavage of caspase-8, caspase-3 and PARP | most active | inhibit the interaction between FADD and c-FLIP | – | – | – | – |
| TRAIL: death ligand TRAIL; KillerTRAIL (human recombinant BULK) purchased from Alexis Biochemicals (protein, UniProt P50591 39-281, looked up, extracellular domain KillerTRAIL recombinant, Alexis, death ligand TRAIL; KillerTRAIL (human recombinant BULK) purchased from Alexis Biochemicals) extracellular domain: TNELKQMQDKYSKSGIACFLKEDDSYWDPNDEESMNSPCWQVKWQLRQLVRKMILRTSEETISTVQEKQQNISPLVRERGPQRVAAHITGTRGRSNTLSSPNSKNEKALGRKINSWESSRSGHSFLSNLHLRNGELVIHEKGFYYIYSQTYFRFQEEIKENTKNDKQMVQYIYKYTSYPDPILLMKSARNSCWSKDAEYGLYSIYQGGIFELKENDRIFVSVTNEHLIDMDHEASFFGAFLVG | – | – | – | – | – | – | cleavage of caspase-8, caspase-3 and PARP | no cleavage observed | resistant to TRAIL; also recorded: no effect | more than 60% |
